We go through 10 molecules from ChEMBL document CHEMBL3044904, “Mild and highly efficient copper (II) sulfate catalyzed one pot synthesis of 2-aryl benzimidazole using atmospheric air as an oxidant and its antibacterial study” (2013).

Converted amounts (≈) assume the structure as drawn.

What all share (assay type): functional
One assay concerns Pseudomonas aeruginosa. The experiment in a line: Antibacterial activity against Pseudomonas aeruginosa ATCC 23564 assessed as growth inhibition after 24 hr by two-fold serial dilution method. Conditions: ATCC 23564, 24 h.
The next assay deals with Salmonella typhi. The experiment in a line: Antibacterial activity against Salmonella enterica subsp. enterica serovar Typhi ATCC 15499 assessed as growth inhibition after 24 hr by two-fold serial dilution method. The following applies: ATCC 15499, 24 h.
A further assay has as its system Escherichia coli. As to the kind of experiment: Antibacterial activity against Escherichia coli ATCC 35218 assessed as growth inhibition after 24 hr by two-fold serial dilution method. Conditions: ATCC 35218, 24 h.
Another assay has as its system Staphylococcus aureus. As to the kind of experiment: Antibacterial activity against Staphylococcus aureus ATCC 11632 assessed as growth inhibition after 24 hr by two-fold serial dilution method. The following applies: ATCC 11632, 24 h.
The next assay has as its system Enterococcus faecalis. As to the kind of experiment: Antibacterial activity against Enterococcus feacalis clinical isolate assessed as growth inhibition after 24 hr by two-fold serial dilution method.
In the next assay the test system is Bacillus cereus. The experiment in a line: Antibacterial activity against Bacillus cereus MTCC 7350 assessed as growth inhibition after 24 hr by two-fold serial dilution method. The following applies: MTCC 7350, 24 h.

As to `Cc1ccc(-c2nc3ccccc3[nH]2)cc1`, the MIC (in general, the lowest concentration that inhibits growth of the organism) turned out to be 12.5 µg/mL (≈ 60 µM) in the assay on Pseudomonas aeruginosa; 50 µg/mL (≈ 240 µM) in the assay with Salmonella typhi; 50 µg/mL (≈ 240 µM) in the assay on Escherichia coli; 25 µg/mL (≈ 120 µM) with Staphylococcus aureus; 50 µg/mL (≈ 240 µM) in the assay with Enterococcus faecalis; 200 µg/mL (≈ 960 µM) in the assay with Bacillus cereus.

Regarding `Oc1ccccc1-c1nc2ccccc2[nH]1`, the minimum inhibitory concentration (MIC) in the assay on Pseudomonas aeruginosa is 25 µg/mL (≈ 119 µM); in the assay on Salmonella typhi, 400 µg/mL (≈ 1900 µM); in the assay on Escherichia coli, 400 µg/mL (≈ 1900 µM); in the assay with Staphylococcus aureus, 25 µg/mL (≈ 119 µM); with Enterococcus faecalis it was 50 µg/mL (≈ 238 µM); in the assay on Bacillus cereus it was 6.25 µg/mL (≈ 29.7 µM).

Turning to `Oc1ccc(-c2nc3ccccc3[nH]2)cc1`, the MIC is 25 µg/mL (≈ 119 µM) in the assay on Pseudomonas aeruginosa; 400 µg/mL (≈ 1900 µM) with Salmonella typhi; 400 µg/mL (≈ 1900 µM) in the assay on Escherichia coli; 25 µg/mL (≈ 119 µM) in the assay with Staphylococcus aureus; 100 µg/mL (≈ 476 µM) with Enterococcus faecalis; 50 µg/mL (≈ 238 µM) in the assay on Bacillus cereus.

Consider `O=[N+]([O-])c1ccc(-c2nc3ccccc3[nH]2)cc1`, for which the MIC with Pseudomonas aeruginosa turned out to be 12.5 µg/mL (≈ 52.3 µM); in the assay on Salmonella typhi, 25 µg/mL (≈ 105 µM); with Escherichia coli, 50 µg/mL (≈ 209 µM); in the assay on Staphylococcus aureus, 50 µg/mL (≈ 209 µM); in the assay with Enterococcus faecalis, 25 µg/mL (≈ 105 µM); in the assay on Bacillus cereus, 25 µg/mL (≈ 105 µM).

Turning to `c1ccc(-c2nc3ccccc3[nH]2)cc1`, the MIC in the assay with Pseudomonas aeruginosa was found to be 12.5 µg/mL (≈ 64.4 µM); with Salmonella typhi, 6.25 µg/mL (≈ 32.2 µM); in the assay on Escherichia coli, 50 µg/mL (≈ 257 µM); with Staphylococcus aureus, 12.5 µg/mL (≈ 64.4 µM); with Enterococcus faecalis it was 12.5 µg/mL (≈ 64.4 µM); in the assay on Bacillus cereus, 50 µg/mL (≈ 257 µM).

As for `CC1(C)S[C@@H]2[C@H](NC(=O)[C@H](N)c3ccccc3)C(=O)N2[C@H]1C(=O)O` [AMPICILLIN], the MIC with Pseudomonas aeruginosa stood at 50 µg/mL (≈ 143 µM); in the assay on Salmonella typhi, 6.25 µg/mL (≈ 17.9 µM); in the assay on Escherichia coli it was 400 µg/mL (≈ 1140 µM); in the assay on Staphylococcus aureus, 50 µg/mL (≈ 143 µM); in the assay with Enterococcus faecalis, 400 µg/mL (≈ 1140 µM); with Bacillus cereus, 50 µg/mL (≈ 143 µM).

Regarding `C(=C\c1ccc(-c2nc3ccccc3[nH]2)cc1)/c1ccccc1`, the minimum inhibitory concentration (MIC) in the assay with Pseudomonas aeruginosa came to 12.5 µg/mL (≈ 42.2 µM); in the assay with Salmonella typhi, 25 µg/mL (≈ 84.4 µM); in the assay with Escherichia coli, 50 µg/mL (≈ 169 µM); in the assay with Staphylococcus aureus it was 12.5 µg/mL (≈ 42.2 µM); in the assay on Enterococcus faecalis, 25 µg/mL (≈ 84.4 µM); in the assay on Bacillus cereus it was 6.25 µg/mL (≈ 21.1 µM).

Take `COc1ccc(-c2nc3ccccc3[nH]2)cc1`: the minimal inhibitory concentration (MIC) came out at 25 µg/mL (≈ 111 µM) in the assay with Pseudomonas aeruginosa; 25 µg/mL (≈ 111 µM) in the assay on Salmonella typhi; 50 µg/mL (≈ 223 µM) in the assay on Escherichia coli; 12.5 µg/mL (≈ 55.7 µM) with Staphylococcus aureus; 25 µg/mL (≈ 111 µM) with Enterococcus faecalis; 50 µg/mL (≈ 223 µM) with Bacillus cereus.

In the case of `Clc1ccc(-c2nc3ccccc3[nH]2)cc1`, the minimal inhibitory concentration (MIC) worked out at 12.5 µg/mL (≈ 54.7 µM) with Pseudomonas aeruginosa; 25 µg/mL (≈ 109 µM) with Salmonella typhi; 25 µg/mL (≈ 109 µM) in the assay with Escherichia coli; 12.5 µg/mL (≈ 54.7 µM) in the assay on Staphylococcus aureus; 12.5 µg/mL (≈ 54.7 µM) in the assay on Enterococcus faecalis; 6.25 µg/mL (≈ 27.3 µM) with Bacillus cereus.

For `O=C(O)c1cn(C2CC2)c2cc(N3CCNCC3)c(F)cc2c1=O` [CIPROFLOXACIN], the MIC worked out at 1.25 µg/mL (≈ 3.77 µM) with Pseudomonas aeruginosa and 3.12 µg/mL (≈ 9.42 µM) in the assay on Salmonella typhi.
